# Measurements: US20240174651A1, “COMPOUNDS AND USE THEREOF FOR TREATMENT OF NEURODEGENERATIVE, DEGENERATIVE AND METABOLIC DISORDERS” (THE SCRIPPS RESEARCH INSTITUTE, priority 2021, published 2024)
# “And” between values parts separate entries of the source, which are not always exact repeats. Equal entries are not always repeated. Where two headings read alike, the source gives them in different places.
# System: PK1 neuroblastoma cells exposed to TPrP
# Experiment: cells
# Format: cell-based
# Conditions: read-out: TPrP EC50
Structure (SMILES),"EC50 (PK-1, 96 h)",EC50
CC(=O)c1cccc(Nc2nnc(Cc3ccncc3)c3ccccc23)c1 [SR005],0.015 µM,0.02 µM and 0.025 µM
c1ccc2c(c1)CCC2Nc1nnc(Cc2ccncc2)c2ccccc12 (centres unmarked) [SR-27884],0.5 µM,
COc1ccc2oc(Nc3nnc(Cc4ccncc4)c4ccccc34)nc2c1 [SR-32076],0.02 µM,
c1ccc2[nH]c(CNc3nnc(Cc4ccncc4)c4ccccc34)cc2c1 [SR-30006],0.05 µM,
CC(=O)c1cccc(Nc2nnc(Cc3ccncc3C(F)(F)F)c3ccccc23)c1 [SR-33876],> 0.5 µM,
Fc1cccc2oc(Nc3nnc(Cc4ccncc4)c4ccccc34)nc12 [SR-32070],0.02 µM,
Fc1ccc2nc(Nc3nnc(Cc4ccncc4)c4ccccc34)oc2c1 [SR-32071],0.09 µM,
c1ccc2c(NCC3CCCO3)nnc(Cc3ccncc3)c2c1 (centres unmarked) [SR-30004],0.15 µM,
c1ccc2c(c1)CC(CNc1nnc(Cc3ccncc3)c3ccccc13)CO2 (centres unmarked) [SR-27890],0.165 µM,
c1coc(CNc2nnc(Cc3ccncc3)c3ccccc23)c1 [SR-30005],0.14 µM,
C/C(=N\O)c1cccc(Nc2nnc(Cc3ccncc3)c3ccccc23)c1 [SR-30013],0.002 µM,
CC1(c2cccc(Nc3nnc(Cc4ccncc4)c4ccccc34)c2)OCCO1 [SR-30012],0.002 µM,
COc1cc(Cc2nnc(Nc3cccc(C(C)=O)c3)c3ccccc23)ccn1 [SR-33874],> 0.5 µM,
CC(=O)c1cccc(Nc2nnc(C(C)c3ccncc3)c3ccccc23)c1 (centres unmarked) [SR-34644],0.045 µM,
O=[N+]([O-])c1cccc2oc(Nc3nnc(Cc4ccncc4)c4ccccc34)nc12 [SR-32069],0.008 µM,
O=[N+]([O-])c1ccc2oc(Nc3nnc(Cc4ccncc4)c4ccccc34)nc2c1 [SR-32068],0.02 µM,
Fc1cccc2nc(Nc3nnc(Cc4ccncc4)c4ccccc34)oc12 [SR-32074],0.03 µM,
O=S(=O)(c1cccc(Nc2nnc(Cc3ccncc3)c3ccccc23)c1)N1CCOCC1 [SR-35424],0.009 µM,
c1ccc2c(NCC3CCCCO3)nnc(Cc3ccncc3)c2c1 (centres unmarked) [SR-30007],0.06 µM,
c1ccc(OCCNc2nnc(Cc3ccncc3)c3ccccc23)cc1 [SR-27892],0.5 µM,
c1ccc2c(c1)ccc1oc(Nc3nnc(Cc4ccncc4)c4ccccc34)nc12 [SR-32077],0.135 µM,
"Cc1cc(C(C)c2nnc(NCC3CCOCC3)c3ccccc23)ccn1 (centres unmarked) [SR-35429, 4-(1-(2-methylpyridin-4-yl)ethyl)-N-((tetrahydro-2H-pyran-4-yl)methyl)phthalazin-1-amine]",0.026 µM,
Fc1ccc2oc(Nc3nnc(Cc4ccncc4)c4ccccc34)nc2c1 [SR-32067],0.02 µM,
COc1cc(Cc2nnc(NCc3cc4ccccc4o3)c3ccccc23)ccn1 [SR-33875],> 0.5 µM,
c1ccc2cc3oc(Nc4nnc(Cc5ccncc5)c5ccccc45)nc3cc2c1 [SR-32073],0.25 µM,
Cc1cccc2nc(Nc3nnc(Cc4ccncc4)c4ccccc34)oc12 [SR-32075],> 0.4 µM,
c1ccc2c(c1)CC(Nc1nnc(Cc3ccncc3)c3ccccc13)C2 [SR-27885],0.2 µM,
CC(=O)c1cccc(Nc2nnc(Cc3cc(C)nc(C)c3)c3ccccc23)c1 [SR-32064],> 0.4 µM,

Structure (SMILES),"EC50 (PK-1, 96 h)",EC50
c1ccc2oc(CNc3nnc(Cc4ccncc4)c4ccccc34)cc2c1 [SR-30011],0.002 µM,
Cc1cc(Cc2nnc(Nc3nc4ccccc4o3)c3ccccc23)cc(C)n1 [SR-32065],> 0.4 µM,
CC(O)c1cccc(Nc2nnc(Cc3ccncc3)c3ccccc23)c1 (centres unmarked) [SR-29684],0.002 µM,
c1ccc2c(c1)CC(Nc1nnc(Cc3ccncc3)c3ccccc13)CO2 (centres unmarked) [SR-27889],0.285 µM,
Cc1cc(C(C)c2nnc(NCc3ccco3)c3ccccc23)ccn1 (centres unmarked) [SR-35433],> 0.9 µM,
CC(c1ccncc1)c1nnc(NCc2cc3ccccc3o2)c2ccccc12 (centres unmarked) [SR-34645],~0.5 µM,
CC(=O)c1cccc(Nc2nnc(Cc3ccnc(C(F)(F)F)c3)c3ccccc23)c1 [SR-33873],> 0.5 µM,
Cc1cc(C(C)c2nnc(NCC3COc4ccccc4C3)c3ccccc23)ccn1 (centres unmarked) [SR-35432],> 0.9 µM,
c1ccc2c(NCC3CCOCC3)nnc(Cc3ccncc3)c2c1 [SR-30008],0.015 µM,
c1ccc2[nH]c(CNc3nnc(Cc4ccncc4)c4ccccc34)nc2c1 [SR-27887],0.22 µM,
O=S(=O)(c1cccc(Nc2nnc(Cc3ccncc3)c3ccccc23)c1)N1CC2CCC(C1)O2 [SR-35428],0.006 µM,
c1ccc2oc(CNc3nnc(Cc4ccncc4)c4ccccc34)nc2c1 [SR-27888],0.045 µM,
COc1ccc(CNc2nnc(Cc3ccncc3)c3ccccc23)cc1OC [SR-27886],0.15 µM,
Cc1cc(C(C)c2nnc(NC3CCc4ccccc43)c3ccccc23)ccn1 (centres unmarked) [SR-35430],> 0.9 µM,
CC(=O)c1cccc(Nc2nnc(Cc3ccnc(C)c3)c3ccccc23)c1 [SR-33871],0.07 µM,
c1ccc2oc(Nc3nnc(Cc4ccncc4)c4ccccc34)nc2c1 [SR-30010],0.002 µM,
O=S(=O)(c1ccc(Nc2nnc(Cc3ccncc3)c3ccccc23)cc1)N1CCOCC1 [SR-35425],0.005 µM,
Cc1ccc2nc(Nc3nnc(Cc4ccncc4)c4ccccc34)oc2c1 [SR-32066],0.05 µM,
Cc1cc(Cc2nnc(Nc3nc4ccccc4o3)c3ccccc23)ccn1 [SR-33872],> 0.5 µM,
Cc1cc(C(C)c2nnc(Nc3cccc(C4COC4)c3)c3ccccc23)ccn1 (centres unmarked) [SR-35431],> 0.9 µM,
"Clc1ccc(Nc2nnc(Cc3ccncc3)c3ccccc23)cc1 [vatalanib, reference compound]",0.06 µM,
CC(=O)c1cccc(Nc2nnc(C(c3ccncc3)C(F)(F)F)c3ccccc23)c1 (centres unmarked) [SR-34646],> 0.5 µM,
O=S(=O)(c1cccc(Nc2nnc(Cc3ccncc3)c3ccccc23)c1)N1C2CCC1COC2 [SR-35427],0.007 µM,
c1cc(Nc2nnc(Cc3ccncc3)c3ccccc23)cc(C2COC2)c1 [SR-35426],0.01 µM,
CC(=C(F)F)c1cccc(Nc2nnc(Cc3ccncc3)c3ccccc23)c1 [SR-31144],> 0.4 µM,
Cc1cccc2oc(Nc3nnc(Cc4ccncc4)c4ccccc34)nc12 [SR-32072],0.03 µM,
CO/N=C(\C)c1cccc(Nc2nnc(Cc3ccncc3)c3ccccc23)c1 [SR-30014],0.002 µM,
